Earlier results in US20050222163A1, “Combinations of signal transduction inhibitors” (PFIZER INC, priority 2004, published 2005).

Experiments:
[1] = system: phosphorylated ERK1 and ERK2; conditions: background statement, result in words
[2] = comparison with predecessor CI-1040, result in words

Structure (SMILES) | levels of phosphorylated ERK1 and ERK2 [1] | metabolic stability relative to CI-1040 [2]
O=C(NOC[C@H](O)CO)c1ccc(F)c(F)c1Nc1ccc(I)cc1F [N-[(R)-2,3-Dihydroxy-propoxy]-3,4-difluoro-2-(2-fluoro-4-iodo-phenylamino)-benzamide] | significantly inhibits the phosphorylation of ERK1 and ERK2 | metabolically more stable
O=C(NOCC1CC1)c1ccc(F)c(F)c1Nc1ccc(I)cc1Cl [CI-1040, 2-(2-Chloro-4-iodo-phenylamino)-N-cyclopropylmethoxy-3,4-difluoro-benzamide, reference compound] | significant decrease | –
